Reference: patent US8889411B2, “Modulation of stem and progenitor cell differentiation, assays, and uses thereof” (Anthrogenesis Corporation, priority 2002, dated 2014)

How the values were obtained:
[1] = test system: adult SJL/L mice with bone marrow ablation by lethal irradiation; test: Transplantation of ACTIMID-pretreated nucleated cells into lethally irradiated mice; type: in vivo, mouse; settings: for % Starting Body Weight at 50 days: irradiated mice
Protocol: Placental nucleated cells (PLNC), umbilical cord blood nucleated cells (UCBNC) and bone marrow cells (BMNC) were obtained from human donors. PLNC and UCBNC were obtained from placenta and umbilical cord using methods described in Section 5.4 above.
The cells were pretreated by incubation in DMEM supplemented with 2% human CB serum with 10 µg/ml ACTIMID™ for 24 hours. Cells were then washed, resuspended in autologous plasma, and administered intravenously to recipient adult SJL/L mice (Jackson Laboratories) that had bone marrow ablation produced by lethal irradiation (900cGy) according to standard methods. Such irradiation is better than 90% lethal by 50 days post-irradiation (Ende et al., 2001, Life Sciences 69(13):1531-1539; Chen and Ende, 2000, J. Med. 31: 21-30; Ende et al., 2000, Life Sci. 67(1):53-9; Ende and Chen, 2000, Am. J. Clin. Pathol. 114: 89).

[2] = test system: CD1a+CD14− and CD1a−CD14+ cells (DC progenitors); test: Detection of apoptosis (Annexin V-FITC / propidium iodide) in isolated DC progenitors; type: cell-based, human; settings: 1 μM; 2 days; GM-CSF and TNF-α
Protocol: Detection of apoptosis: Phosphatidyl serine exposure was determined using Annexin V-FITC staining in combination with propidium iodide (BD Pharmingen apoptosis detection kit I) following manufacturer instruction.
Block in DC generation is not mediated by specific killing of the DC progenitors: To determine if the decrease in DC progenitors was mediated by specific killing, CD34^+ progenitor cells were cultured for a period of 6 days in the presence of SCF, Flt-3L, GM-CSF and TNF-α. At day 6, CD1a^+CD14^− and […] cells (DC progenitors) were isolated by magnetic cell sorting (Miltenyi). Purified populations were cultured for an additional 2 days in the presence of GM-CSF and TNF-α with or without ACTIMID™ (1 μM).

[3] = test system: Bone marrow and cord blood CD34+ progenitor cells; test: Differentiation of CD34+ progenitor cells into dendritic cells, cell surface phenotype by flow cytometry; type: cell-based, human; set-up: key to Cell Population CD15+ / Cell Population CD34+ CD38− / Cell Population CD34− CD38+ / Cell Population CD1a+ CD14− / Cell Population CD1a− CD14+: ↑: up arrow indicates an increase in the cell population; ↓: down arrow indicates a decrease
Protocol: Bone marrow and cord blood CD34^+ progenitor cells were obtained from Clonetics and cultured in Iscove's MDM with BIT 95000 (StemCell Technologies) in the presence of SCF, Flt-3L, GM-CSF and TNF-α for 6 days, and then in the presence of GM-CSF and TNF-α for 6 additional days.
Analysis of cell surface phenotype: Cells were processed for double staining (30 min at 4° C.) at day 6 and day 12 using FITC and PE conjugated mAbs. Antibodies used were from BD Pharmingen: CD34 (PE), CD38 (FITC), CD33 (FITC), CD1a (FITC), CD86 (PE), CD14 (PE), CD83 (PE), CD54 (PE), CD11b (PE), CD11c (PE), HLA-DR (PE), CD15 (FITC), and CD133 (PE) from Miltenyi. Fluorescence analysis was performed on a FACScan flow cytometer after acquisition of 10,000 events (Coulter). Results presented are representative of four independent experiments.
The methodology described above, i.e., the examination of the effect of IMiDs such as ACTIMID™ on the differentiation on early progenitor cells, such as CD34^+ cells, can be applied to any compound of interest, the effect of which on differentiation is desired to be known. As an example of the extension of this assay method to other compounds, we compared the effect of retinoic acid (ATRA) and aspirin to that of ACTIMID™ on the differentiation of CD34^+ cells toward the DC lineage versus the control (DMSO-treated) cells. Retinoic acid was studied because of its known effect on cellular proliferation and differentiation, its therapeutic use in some cancer, and its known teratogenic effect. Conversely, we studied the effect of aspirin because it is a commonly-used anti-inflammatory drug with no immunomodulatory properties. The results at day 6 of CD34^+ progenitors cells cultured in the presence of SCF, Flt-3L, GM-CSF and TNF-α, with or without compound for a period of 6 days, are presented below in Table 2 (up arrow indicates an increase in the cell population; down arrow indicates a decrease).

[4] = test system: Cord blood CD34+ hematopoietic progenitor cells; test: Colony forming unit (CFU) generation from cord blood CD34+ cells; type: cell-based, human; settings: IL-3, G-CSF, kit-ligand, vs DMSO
Protocol: FIG. 1. Bar graph indicating results of culturing cord blood CD34+ cells in the presence of Thalidomide (THD), ACTIMID™, and REVIMID™ at concentrations of 1 μg/ml and 10 μg/ml. An equal volume of DMSO was used as a negative control. Hematopoietic colonies of burst forming units-erythroid (BFU-E), colony forming units-erythroid (CFU-E), colony forming units-granulocyte macrophage (CFU-GM) and total numbers of colonies (CFU-Total) were scored under the light microscope at day 14 of culture. Y-axis: numbers of colonies. See Section 6.1 for details.
Cord blood CD34+ hematopoietic progenitor cells were plated in 96 well cultivation dishes at a density of 1000 cells per well in IMDM supplemented with 20% fetal calf serum and cytokines (IL-3, G-CSF and kit-ligand (R&D Systems, Inc.) The cells were exposed to Thalidomide (Thal), ACTIMID™ and REVIMID™, or DMSO (a control compound), and allowed to culture for 6 days. […] After culturing, cells were stained and sorted with a fluorescence activated. cell sorter (FACS). 400 μL of stained cells were harvested and diluted to 1.0 ml with 1% fetal calf serum in phosphate buffered saline (PBS). Cells were counted to determine the effect of modulation of stem cell differentiation.

[5] = Day 12, compound from day 6 to day 12
[6] = day 6, SCF, Flt-3L, GM-CSF and TNF-α, versus DMSO-treated control

Nc1cccc2c1C(=O)N(C1CCC(=O)NC1=O)C2=O (centres unmarked) [ACTIMID™, 4-(Amino)-2-(2,6-dioxo(3-piperidyl))-isoindoline-1,3-dione]
survival of transplanted PLNC, UCBNC and BMNC ([1]; ACTIMID pre-treatment of cells): increases the survival | # of Animals Dead at 50 days ([1]; PLNC 5 × 10^6 + ACTIMID pre-treatment (10 g/ml, 24 hours) intravenous, 4 animals irradiated (900cGy)): 0 | % Starting Body Weight at 50 days ([1]; PLNC 5 × 10^6 + ACTIMID pre-treatment intravenous): 102% | # of Animals Dead at 50 days ([1]; UCBNC 10 × 10^6 + ACTIMID pre-treatment intravenous, 3 animals irradiated (900cGy)): 0 | % Starting Body Weight at 50 days ([1]; UCBNC 10 × 10^6 + ACTIMID pre-treatment intravenous): 84% | level of annexin V+-PI− (early apoptosis) and annexin V+-PI+ (late apoptosis) populations [2]: no significant increase | toxic effects on CD34+ cells [3]: no toxic effects | CD34+CD38− population ([3]; 1 μM, day 1 to day 12): increased | acquisition of the DC phenotype ([3]; 1 μM, day 1 to day 12): inhibited | expression of co-stimulatory molecules (CD86, CD80) at day 12 ([3]; 1 μM, day 1 to day 12): decreased expression | expression of the CD54bright population ([3]; 1 μM, day 12): decreased expression | expression of the CD54dim population ([3]; 1 μM, day 12): increased expression | generation of CD14+CD1a− cells ([3]; 1 μM, from day 1): decreased | generation of CD1a+ cells at day 6 ([3]; 1 μM, from day 1, particularly CD86+CD1a+ cells): almost completely prevented | expression of the CD15 surface molecule (granulocytic marker) ([3]; 12 days in the presence of compound, FIG. 22): increased | cells' ability to proliferate ([3]; CD34+ cells): not to impair | CD1a+ [3, 5]: 11.5% | CD14+ [3, 5]: 8.0% | CD80+ [3, 5]: 13.8% | CD86+ [3, 5]: 18.5% | CD11c+CD15− population ([3]; FIG. 19B): decrease | CD11c−CD15+ granulocytic population ([3]; FIG. 19B): increase | Cell Population CD1a+ CD14− [3, 6]: ↓ | Cell Population CD1a− CD14+ [3, 6]: ↓ | Cell Population CD15+ [3, 6]: ↑ | Cell Population CD34+ CD38− [3, 6]: ↑ | Cell Population CD34− CD38+ [3, 6]: ↓ | concentration at which increase in CD34+CD38− cells and block in myeloid DC progenitors reached a maximum ([3]; dose dependant, day 0 to day 6, FIG. 17): 1 µM | culture time with compound needed for interference with the CD34 differentiation pathway ([3]; effect reversible, FIG. 18): at least 3 days | expression of CD133 ([3]; multiple doses): increases | increase in the CD34+ population ([3]; multiple doses between days 0 and 6): intensified the increase | expression of HLA-DR molecules ([3]; treated CD34+ progenitors, day 12): reduced | generation of erythropoietic colonies (BFU-E and CFU-E) [4]: suppress | generation of leukocyte and platelet forming colonies (CFU-GM) [4]: augmenting | total colony forming unit (CFU-Total) production [4]: enhancing
